Measurements: patent US20260325605A1, “INHIBITORS” (Zealand Pharma A/S, priority 2022, published 2026)

Columns and labels:
Kv1.3 = biological target: T1, Kv1.3 (Homo sapiens, UniProt P22001); assay: Patch clamp assay (QPatch), Kv1.3; type: cell-based; conditions: CHO cells stably expressing human Kv1.3, read-out: Potency IC50, Kv1.3
T1 construct: expressed in transfected cells

Kv1.1 = biological target: T2, Kv1.1 (Homo sapiens, UniProt Q09470); assay: Patch clamp assay (QPatch), Kv1.1; type: cell-based; conditions: for IC50: QPatch, CHO cells stably expressing human Kv1.1, read-out: Potency IC50, Kv1.1; for Selectivity Kv1.1/Kv1.3: ratio of IC50 Kv1.1/Kv1.3
T2 construct: expressed in transfected cells
T2 sequence (Q09470 whole entry): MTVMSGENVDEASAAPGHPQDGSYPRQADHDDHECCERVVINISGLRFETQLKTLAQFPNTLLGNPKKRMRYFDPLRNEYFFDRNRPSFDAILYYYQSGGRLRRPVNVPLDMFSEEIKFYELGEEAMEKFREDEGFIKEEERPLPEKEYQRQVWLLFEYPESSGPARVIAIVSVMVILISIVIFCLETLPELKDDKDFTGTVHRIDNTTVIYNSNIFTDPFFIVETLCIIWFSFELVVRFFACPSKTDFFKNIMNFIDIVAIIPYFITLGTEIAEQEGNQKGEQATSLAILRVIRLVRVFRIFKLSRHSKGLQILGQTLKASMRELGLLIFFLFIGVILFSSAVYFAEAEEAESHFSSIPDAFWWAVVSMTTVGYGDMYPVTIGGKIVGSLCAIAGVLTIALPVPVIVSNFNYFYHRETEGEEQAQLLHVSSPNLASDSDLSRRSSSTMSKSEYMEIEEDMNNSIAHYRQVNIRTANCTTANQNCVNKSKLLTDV

Kv1.2 = biological target: T3, Kv1.2 (Homo sapiens, UniProt P16389); assay: Patch clamp assay (QPatch), Kv1.2; type: cell-based; conditions: for IC50: QPatch, CHO cells stably expressing human Kv1.2, read-out: Potency IC50, Kv1.2; for Selectivity Kv1.2/Kv1.3: ratio of IC50 Kv1.2/Kv1.3
T3 construct: expressed in transfected cells
T3 sequence (P16389 whole entry): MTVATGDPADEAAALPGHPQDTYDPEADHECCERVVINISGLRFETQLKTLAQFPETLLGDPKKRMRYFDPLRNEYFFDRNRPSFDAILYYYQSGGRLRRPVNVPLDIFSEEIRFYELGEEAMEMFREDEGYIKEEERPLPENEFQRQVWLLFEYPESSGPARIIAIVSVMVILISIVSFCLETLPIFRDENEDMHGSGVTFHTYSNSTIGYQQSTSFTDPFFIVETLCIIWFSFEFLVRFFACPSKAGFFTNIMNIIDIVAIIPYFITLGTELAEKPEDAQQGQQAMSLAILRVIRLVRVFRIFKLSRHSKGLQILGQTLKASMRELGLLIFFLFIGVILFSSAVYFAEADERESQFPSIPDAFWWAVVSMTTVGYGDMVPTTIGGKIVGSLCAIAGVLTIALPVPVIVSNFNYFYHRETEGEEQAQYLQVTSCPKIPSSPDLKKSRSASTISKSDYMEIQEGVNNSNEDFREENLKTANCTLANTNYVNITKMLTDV

Kv1.6 = biological target: T4, Kv1.6 (Homo sapiens, UniProt P17658); assay: Patch clamp assay (QPatch), Kv1.6; type: cell-based; conditions: for IC50: QPatch, CHO cells stably expressing human Kv1.6, read-out: Potency IC50, Kv1.6; for Selectivity Kv1.6/Kv1.3: ratio of IC50 Kv1.6/Kv1.3
T4 construct: expressed in transfected cells
T4 sequence (P17658 whole entry): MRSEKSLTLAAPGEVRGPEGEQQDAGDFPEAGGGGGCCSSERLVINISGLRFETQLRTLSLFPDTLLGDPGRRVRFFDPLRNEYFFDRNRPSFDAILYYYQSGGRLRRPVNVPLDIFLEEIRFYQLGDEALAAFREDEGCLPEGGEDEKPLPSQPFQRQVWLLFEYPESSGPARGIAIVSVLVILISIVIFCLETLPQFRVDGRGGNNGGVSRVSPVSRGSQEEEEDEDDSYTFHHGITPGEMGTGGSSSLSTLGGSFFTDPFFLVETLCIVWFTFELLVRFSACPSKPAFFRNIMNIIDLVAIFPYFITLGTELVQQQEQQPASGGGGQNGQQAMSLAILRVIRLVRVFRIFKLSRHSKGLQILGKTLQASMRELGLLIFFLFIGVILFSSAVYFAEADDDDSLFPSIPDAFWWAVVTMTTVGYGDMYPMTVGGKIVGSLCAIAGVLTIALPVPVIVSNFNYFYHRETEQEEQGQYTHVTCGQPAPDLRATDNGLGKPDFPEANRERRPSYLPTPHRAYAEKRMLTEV

[1] = system: T-cell activation in rat whole blood; assay: Example 4: IL-17A release in thapsigargin stimulated rat whole blood; type: cell-based, rat (Lewis or Sprague-Dawley); conditions: 24 Hr, at least 2 replicates, unit inferred, read-out: IC50 (inhibition of IL-17A release)
Source text: Rat whole blood was used to assess the potency of Kv1.3 inhibitor peptides on T-cell activation as determined by IL-17A release after stimulation with thapsigargin. Addition of thapsigargin results in activation of a signalling cascade ending up in activation of T cell proliferation and cytokine production where the Kv1.3 ion channel plays a key role, so activity of Kv1.3 inhibitors in primary cells can be measured in this experimental system.
Rat whole blood was obtained from healthy, naïve Lewis or Sprague-Dawley rats that were terminally bleed from the heart using Sodium Heparin blood sampling tubes for collection. Peptides were diluted to 4× final testing concentrations in assay buffer (DMEM+GlutaMAX), GlutaMAX is a medium comprising 3.97 mM L-alanine-L-glutamine (Gibco Cat #61965026) supplemented with 25 mM HEPES buffer, 1 mM Sodium Pyruvate, 100 units/ml Penicillin, 100 μg/ml Streptomycin and 0.05% Casein from bovine milk (Sigma-Aldrich)) and 25 μl was added to wells of a 96 well plate. Then 50 μl whole rat blood was added and incubated for minimum 5 minutes at room temperature to allow compound binding. Then 25 μl 40 μM thapsigargin diluted in assay buffer was added to all wells of the assay plates to activate the cells, followed by incubation for 24 Hr at 37° C./5% CO2 in a humidified box. The assay plates were centrifuged for 10 min at 300 g at 4° C. and the supernatants were transferred to new plates. The concentrations of IL-17A released to the supernatants were measured using a Rat IL-17A ELISA Kit (Abcam Cat #ab214028) as recommended by the manufacturer. Samples were diluted 2.5-fold by transferring 20 μl of the supernatants to wells on ELISA plates containing 30 μl buffer 75BS from the detection kit.
Data from peptides eliciting an inhibition of IL-17A were normalised relative to full thapsigargin activation (no inhibitor added) and no activation controls (addition of assay buffer instead of thapsigargin) to calculate the IC50 from the concentration response curve.
Results are shown in Table 5, expressed as IC50, with standard deviation (IC50_SD). All values are derived from at least 2 replicates. The biological effects ex vivo show a correlation with the potency of the peptides.

T1 sequence (P22001 whole entry): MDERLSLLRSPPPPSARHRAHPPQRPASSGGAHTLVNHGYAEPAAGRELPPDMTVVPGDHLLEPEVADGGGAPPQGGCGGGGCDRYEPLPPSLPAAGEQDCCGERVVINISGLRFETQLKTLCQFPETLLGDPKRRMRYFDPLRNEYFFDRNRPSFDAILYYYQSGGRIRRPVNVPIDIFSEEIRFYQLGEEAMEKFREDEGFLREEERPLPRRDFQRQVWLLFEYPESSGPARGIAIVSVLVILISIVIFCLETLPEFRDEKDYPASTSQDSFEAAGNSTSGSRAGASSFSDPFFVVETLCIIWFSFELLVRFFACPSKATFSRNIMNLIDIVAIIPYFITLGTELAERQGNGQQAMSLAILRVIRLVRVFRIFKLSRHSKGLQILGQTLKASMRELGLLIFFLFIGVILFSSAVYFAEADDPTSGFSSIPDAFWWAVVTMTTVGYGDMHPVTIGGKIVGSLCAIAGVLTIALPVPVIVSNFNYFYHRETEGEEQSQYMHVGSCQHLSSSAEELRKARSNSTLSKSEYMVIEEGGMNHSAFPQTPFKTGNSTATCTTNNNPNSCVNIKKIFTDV

Row | Substance | IC50 (Kv1.3) [nM] | IC50 (Kv1.1) [nM] | Selectivity Kv1.1/Kv1.3 (Kv1.1) | IC50 (Kv1.2) [nM] | Selectivity Kv1.2/Kv1.3 (Kv1.2) | IC50 (Kv1.6) [nM] | Selectivity Kv1.6/Kv1.3 (Kv1.6) | IC50 [1] [nM]
1 | H-NMDMRC(1)SASVEC(2)KQLC(3)LKAIGSIFGKC(1)MNKKC(2)KC(3)YPR-NH2 [Peptide 19] | 0.24 | > 3000 | >12700 | 256 | 1080 | > 3000 | >12700 | 3.2
2 | H-NMDMRC(1)SASVEC(2)KQKC(3)LKAIGSIFGKC(1)MNGKC(2)KC(3)YPR-NH2 [Peptide 37] | 0.31 | > 3000 | >9700 | 439 | 1422 | > 3000 | >9700 | 1.2
3 | H-N[Nle]D[Nle]RC(1)SASKEC(2)KQKC(3)LKAIGSIFGKC(1)[Nle]NKKC(2)KC(3)YPR-NH2 [Peptide 64] | 0.31 | > 3000 | >9600 | 184 | 587 | 1230 | 3929 | 0.68
4 | H-N[Nle]D[Nle]RC(1)RASVEC(2)KQKC(3)LKAIGSIFGKC(1)[Nle]NKKC(2)KC(3)YPR-NH2 [Peptide 43] | 0.16 | > 3000 | >18600 | 109 | 674 | 316 | 1954 | 0.91
5 | H-RC(1)SASVEC(2)KQKC(3)LKAIGSIFGKC(1)[Nle]NKKC(2)KC(3)YPR-NH2 [Peptide 111] | 0.4 | > 3000 | >7600 | 280 | 708 | 1300 | 3290 | 0.52
6 | H-P[Nle]D[Nle]RC(1)SASVEC(2)KQKC(3)LKAIGC(4)IFGKC(1)[Nle]NKKC(2)KC(3)YPC(4)-NH2 [Peptide 85] | 0.63 | > 3000 | >4800 | 624 | 995 | 1220 | 1949 | 0.81
7 | H-NMDMRC(1)SASVEC(2)KQKC(3)KKAIGSIFGKC(1)MNKKC(2)KC(3)YPR-NH2 [Peptide 20] | 0.22 | > 3000 | >13500 | 45 | 202 | 435 | 1955 | 0.56
8 | H-N[Nle]D[Nle]RC(1)SHSVEC(2)KQKC(3)LKAIGSIFGKC(1)[Nle]NKKC(2)KC(3)YPR-NH2 [Peptide 48] | 0.54 | > 3000 | >5600 | 772 | 1438 | 609 | 1134 | 0.83
9 | H-N[Nle]D[Nle]RC(1)SASVEC(2)KQKC(3)LKAIGSPFGKC(1)[Nle]NKKC(2)KC(3)YPR-NH2 [Peptide 63] | 0.26 | > 3000 | >11600 | 449 | 1740 | 2350 | 9102 | 0.44
10 | H-NMDMRC(1)SISVEC(2)KQKC(3)LKAIGSIFGKC(1)MNKKC(2)KC(3)YPR-NH2 [Peptide 27] | 0.26 | > 3000 | >11800 | 43 | 169 | > 3000 | >11800 | 0.61
11 | H-N[Nle]D[Nle]RC(1)SASVEC(2)KKKC(3)LKAIGSIFGKC(1)[Nle]NKKC(2)KC(3)YPR-NH2 [Peptide 46] | 0.75 | > 3000 | >4000 | 257 | 343 | > 3000 | >4000 | 1.4
12 | H-S[Nle]DERC(1)SASVEC(2)KQKC(3)LKAIGSIFGKC(1)MNKKC(2)KC(3)YPR-NH2 [Peptide 78] | 0.28 | > 3000 | >10600 | 122 | 430 | > 3000 | >10600 | 0.55
13 | H-S[Nle]D[Nle]RC(1)SASVEC(2)KQKC(3)LKAIGSIFGKC(1)MNKKC(2)KC(3)[F(4-NH2)]PR-NH2 [Peptide 72] | 0.25 | > 3000 | >12200 | 423 | 1720 | > 3000 | >12200 | 0.79
14 | H-NMDMRC(1)SASVEC(2)KQKC(3)LKAIRSIFGKC(1)MNKKC(2)KC(3)YPR-NH2 [Peptide 22] | 0.22 | > 3000 | >13700 | 57 | 259 | 626 | 2851 | 0.82
15 | H-S[Nle]D[Nle]RC(1)SASVEC(2)GQKC(3)LKAIGSIFGKC(1)MNKKC(2)KC(3)YPR-NH2 [Peptide 73] | 0.11 | > 3000 | >27700 | 373 | 3438 | > 3000 | >27700 | 0.3
16 | Ac-SKC(1)SASVEC(2)KQKC(3)LKAIGSIFGKC(1)[Nle]NKKC(2)KC(3)YPR-NH2 [Peptide 113] | 1 | > 3000 | >3000 | 196 | 196 | 1450 | 1451 | 0.36
17 | H-NMDMRC(1)SASVEC(2)KQKC(3)LKAIGSKFGKC(1)MNKKC(2)KC(3)YPR-NH2 [Peptide 35] | 0.42 | > 3000 | >7100 | 100 | 237 | 207 | 490 | 2.1
